Assays:
Type in all cases: cell-based
[1] = system: Ba/F3-EGFR ins. ASV cells; assay: Cell proliferation suppression test (CellTiter-Glo, GI50), Ba/F3-EGFR ins. ASV; conditions: Mus musculus, 72 h, 3 days, N=4
Description: (§1) Cell proliferation suppression test Ba/F3-Mock, Ba/F3-EGFR WT, Ba/F3-EGFR ins. ASV, and Ba/F3-EGFR ins. SVD cell lines were cultured based on a culture medium of 10% FBS-containing RPMI 1640 supplemented with 1.5 ug/mL puromycin, and 5 ng/mL IL-3 and 100 ng/mL of EGF were further added to the culture solution for Ba/F3-Mock and Ba/F3-EGFR WT, respectively. The cells were cultured in a CO2 incubator set at 37° C., 5% CO2. Specimens prepared by dilution were seeded into 384-well tissue culture plates with Echo555 (Labcyte Inc.), and the cells were seeded thereto at 400 cells/well for Ba/F3-Mock, Ba/F3-EGFR WT, and Ba/F3-EGFR ins. SVD and at 200 cells/well for Ba/F3-EGFR ins. ASV (day 0), then they were cultured for an additional 3 days. On the day of the compound addition (day 0) and 3 days after the compound addition (day 3), ATP quantity was measured with CellTiter-Glo (registered trademark) 2.0 (Promega Corporation.), and used as an indicator of cell quantity (N=4). In the test, puromycin-free culture medium was used. Concentrations at which cell proliferation from day 0 to day 3 was inhibited by 50% (GIso) were calculated with EXCEL.

[2] = system: Ba/F3-Mock cells; assay: Cell proliferation suppression test (CellTiter-Glo, GI50), Ba/F3-Mock; conditions: Mus musculus, BaF3, 72 h, 5 ng/mL IL-3, 3 days, N=4
Description: as §1

[3] = system: Ba/F3-EGFR WT cells; assay: Cell proliferation suppression test (CellTiter-Glo, GI50), Ba/F3-EGFR WT; conditions: Mus musculus, 72 h, 100 ng/mL EGF, 3 days, N=4
Description: as §1

[4] = system: Ba/F3-EGFR ins. SVD cells; assay: Cell proliferation suppression test (CellTiter-Glo, GI50), Ba/F3-EGFR ins. SVD; conditions: Mus musculus, 72 h, 3 days, N=4
Description: as §1

Question: For `C=CC(=O)N1CCC(Oc2cc3c(Nc4ccc(Oc5nc(-c6cnc(OC)nc6)cs5)cc4F)ncnc3cc2OC)CC1` [Example 16, 1-(4-{[4-(2-Fluoro-4-{[4-(2-methoxypyrimidin-5-yl)-1,3-thiazol-2-yl]oxy}anilino)-7-methoxyquinazolin-6-yl]oxy}piperidin-1-yl)prop-2-en-1-one], which GI50 [1] is on record?
Answer: 11.4 nM

Question: And the GI50 [2]?
Answer: > 10000 nM

Question: What about the GI50 [3] of the same compound?
Answer: 320 nM

Question: And the GI50 [4]?
Answer: 11.3 nM

Question: What does the source list for `C=CC(=O)N1CCC(Oc2cc3c(Nc4ccc(Oc5cccc(-c6nnc(C)o6)c5)cc4F)ncnc3cc2OC)CC1` [Example 17, 1-{4-[(4-{2-Fluoro-4-[3-(5-methyl-1,3,4-oxadiazol-2-yl)phenoxy]anilino}-7-methoxyquinazolin-6-yl)oxy]piperidin-1-yl}prop-2-en-1-one]?
Answer: GI50 [1]: 10.3 nM; GI50 [2]: 8220 nM; GI50 [3]: 186 nM; GI50 [4]: 8 nM

Question: `C=CC(=O)N1CCC(Oc2cc3c(Nc4ccc(Oc5cccc(-c6nnc(C)o6)c5)cc4F)ncnc3cc2OCC)CC1` [Example 18, 1-{4-[(7-Ethoxy-4-{2-fluoro-4-[3-(5-methyl-1,3,4-oxadiazol-2-yl)phenoxy]anilino}quinazolin-6-yl)oxy]piperidin-1-yl}prop-2-en-1-one] was tested. Which GI50 [1] did it give?
Answer: 12.2 nM

Question: What about the GI50 [2] of the same compound?
Answer: 4660 nM

Question: What about the GI50 [3] of the same compound?
Answer: 158 nM

Question: What about the GI50 [4] of the same compound?
Answer: 12.2 nM

Question: For `C=CC(=O)N1CCC(Oc2cc3c(Nc4ccc(Oc5cccc(-c6nnc(C)o6)c5)cc4F)ncnc3cc2OCF)CC1` [Example 19, 1-(4-{[7-(Fluoromethoxy)-4-{2-fluoro-4-[3-(5-methyl-1,3,4-oxadiazol-2-yl)phenoxy]anilino}quinazolin-6-yl]oxy}piperidin-1-yl)prop-2-en-1-one], which GI50 [1] is on record?
Answer: 23.5 nM

Question: What about the GI50 [2] of the same compound?
Answer: 4920 nM

Question: And the GI50 [3]?
Answer: 386 nM

Question: And the GI50 [4]?
Answer: 20.2 nM

Question: Which GI50 [1] does the source give for `[2H]C([2H])([2H])Oc1cc2ncnc(Nc3ccc(Oc4ccn(C(=O)NC(C)(C)C)n4)cc3F)c2cc1OC1CCN(C(=O)C=C)CC1` [Example 20, N-tert-Butyl-3-{3-fluoro-4-[(7-[(^2H3)methyloxy]-6-{[1-(prop-2-enoyl)piperidin-4-yl]oxy}quinazolin-4-yl)amino]phenoxy}-1H-pyrazole-1-carboxamide] here?
Answer: 18.6 nM

Question: And the GI50 [2]?
Answer: > 10000 nM

Question: What about the GI50 [3] of the same compound?
Answer: 171 nM

Question: What about the GI50 [4] of the same compound?
Answer: 9 nM

Question: Which GI50 [1] does the source give for `[2H]C([2H])([2H])Oc1cc2ncnc(Nc3ccc(Oc4ccn(C(=O)NC(C([2H])([2H])[2H])(C([2H])([2H])[2H])C([2H])([2H])[2H])n4)cc3F)c2cc1OC1CCN(C(=O)C=C)CC1` [Example 21, 3-{3-Fluoro-4-[(7-[(^2H3)methyloxy]-6-{[1-(prop-2-enoyl)piperidin-4-yl]oxy}quinazolin-4-yl)amino]phenoxy}-N-[2-(^2H3)methyl(^2H6)propan-2-yl]-1H-pyrazole-1-carboxamide] here?
Answer: 12.1 nM

Question: What about the GI50 [2] of the same compound?
Answer: 7990 nM

Question: What about the GI50 [3] of the same compound?
Answer: 129 nM

Question: And the GI50 [4]?
Answer: 7.3 nM

Question: For `C=CC(=O)N1CCC(Oc2cc3c(Nc4ccc(Oc5ccn(C(=O)NC6(C(F)(F)F)CC6)n5)cc4F)ncnc3cc2OC)CC1` [Example 22, 3-{3-Fluoro-4-[(7-methoxy-6-{[1-(prop-2-enoyl)piperidin-4-yl]oxy}quinazolin-4-yl)amino]phenoxy}-N-[1-(trifluoromethyl)cyclopropyl]-1H-pyrazole-1-carboxamide], which GI50 [1] is on record?
Answer: 14.5 nM

Question: What about the GI50 [2] of the same compound?
Answer: 8620 nM

Question: What about the GI50 [3] of the same compound?
Answer: 102 nM

Question: And the GI50 [4]?
Answer: 12.8 nM

Question: For `C=CC(=O)N1CCC(Oc2cc3c(Nc4ccc(Oc5ccn(C(=O)NC(C)(CF)CF)n5)cc4F)ncnc3cc2OC)CC1` [Example 23, N-(1,3-Difluoro-2-methylpropan-2-yl)-3-{3-fluoro-4-[(7-methoxy-6-{[1-(prop-2-enoyl)piperidin-4-yl]oxy}quinazolin-4-yl)amino]phenoxy}-1H-pyrazole-1-carboxamide], which GI50 [1] is on record?
Answer: 12.4 nM

Question: What about the GI50 [2] of the same compound?
Answer: 5530 nM

Question: And the GI50 [3]?
Answer: 110 nM

Question: And the GI50 [4]?
Answer: 10.9 nM

Question: For `C=CC(=O)N1CCC(Oc2cc3c(Nc4ccc(Oc5ccn(C(=O)N[C@H](C)C(F)(F)F)n5)cc4F)ncnc3cc2OC)CC1` [Example 24, 3-{3-Fluoro-4-[(7-methoxy-6-{[1-(prop-2-enoyl)piperidin-4-yl]oxy}quinazolin-4-yl)amino]phenoxy}-N-[(2R)-1,1,1-trifluoropropan-2-yl]-1H-pyrazole-1-carboxamide], which GI50 [1] is on record?
Answer: 11.8 nM

Question: And the GI50 [2]?
Answer: 6470 nM

Question: What about the GI50 [3] of the same compound?
Answer: 42.4 nM

Question: And the GI50 [4]?
Answer: 9.9 nM

Question: For `[2H]C([2H])([2H])C(NC(=O)n1ccc(Oc2ccc(Nc3ncnc4cc(OC)c(OC5CCN(C(=O)C=C)CC5)cc34)c(F)c2)n1)(C([2H])([2H])[2H])C([2H])([2H])[2H]` [Example 25, 3-{3-Fluoro-4-[(7-methoxy-6-{[1-(prop-2-enoyl)piperidin-4-yl]oxy}quinazolin-4-yl)amino]phenoxy}-N-[2-(^2H3)methyl(^2H6)propan-2-yl]-1H-pyrazole-1-carboxamide], which GI50 [1] is on record?
Answer: 18.8 nM

Question: What about the GI50 [2] of the same compound?
Answer: > 10000 nM

Question: And the GI50 [3]?
Answer: 180 nM

Question: What about the GI50 [4] of the same compound?
Answer: 12.4 nM

Question: Which GI50 [1] does the source give for `COc1cc2ncnc(Nc3ccc(Oc4ccn(C(=O)N5CCCC5)n4)cc3F)c2cc1NC(=O)/C=C/CN(C)C` [Example 26, (2E)-4-(Dimethylamino)-N-[4-(2-fluoro-4-{[1-(pyrrolidin-1-ylcarbonyl)-1H-pyrazo1-3-yl]oxy}anilino)-7-methoxyquinazolin-6-yl]but-2-enamide] here?
Answer: 17.5 nM

Question: What about the GI50 [2] of the same compound?
Answer: 1060 nM

Question: And the GI50 [3]?
Answer: 191 nM

Question: What about the GI50 [4] of the same compound?
Answer: 53.7 nM

Question: What does the source list for `C=CC(=O)N1CCC(Oc2cc3c(Nc4ccc(Oc5ccn(-c6cnc(C)c(F)c6)n5)cc4F)ncnc3cc2OC)CC1` [Example 27, 1-(4-{[4-(2-Fluoro-4-{[1-(5-fluoro-6-methylpyridin-3-yl)-1H-pyrazol-3-yl]oxy}anilino)-7-methoxyquinazolin-6-yl]oxy}piperidin-1-yl)prop-2-en-1-one]?
Answer: GI50 [1]: 11.6 nM; GI50 [2]: 8690 nM; GI50 [3]: 249 nM; GI50 [4]: 11.1 nM

Question: Which results are given for `C=CC(=O)N1CCC(Oc2cc3c(Nc4ccc(Oc5ccn(-c6ccc(C)nc6)n5)cc4F)ncnc3cc2OC)CC1` [Example 28, 1-(4-{[4-(2-Fluoro-4-{[1-(6-methylpyridin-3-yl)-1H-pyrazol-3-yl]oxy}anilino)-7-methoxyquinazolin-6-yl]oxy}piperidin-1-yl)prop-2-en-1-one]?
Answer: GI50 [1]: 12.4 nM; GI50 [2]: 8370 nM; GI50 [3]: 290 nM; GI50 [4]: 12.1 nM

Question: Which GI50 [1] does the source give for `C=CC(=O)N1CCC(Oc2cc3c(Nc4ccc(Oc5ccn(-c6ccnc(Cl)c6)n5)cc4F)ncnc3cc2OC)CC1` [Example 29, 1-(4-{[4-(4-{[1-(2-Chloropyridin-4-yl)-1H-pyrazol-3-yl]oxy}-2-fluoroanilino)-7-methoxyquinazolin-6-yl]oxy}piperidin-1-yl)prop-2-en-1-one] here?
Answer: 11.3 nM

Question: And the GI50 [2]?
Answer: > 10000 nM

Question: And the GI50 [3]?
Answer: 157 nM

Question: And the GI50 [4]?
Answer: 7.9 nM

Question: `C=CC(=O)N1CCC(Oc2cc3c(Nc4ccc(Oc5ccn(-c6ccnc(F)c6)n5)cc4F)ncnc3cc2OC)CC1` [Example 30, 1-(4-{[4-(2-Fluoro-4-{[1-(2-fluoropyridin-4-yl)-1H-pyrazol-3-yl]oxy}anilino)-7-methoxyquinazolin-6-yl]oxy}piperidin-1-yl)prop-2-en-1-one] was tested. Which GI50 [1] did it give?
Answer: 13.5 nM

Question: And the GI50 [2]?
Answer: > 10000 nM

Question: What about the GI50 [3] of the same compound?
Answer: 121 nM

Question: What about the GI50 [4] of the same compound?
Answer: 14 nM

Question: With `C=CC(=O)N1CCC(Oc2cc3c(Nc4ccc(Oc5ccn(-c6ccc(C7CC7)nc6)n5)cc4F)ncnc3cc2OC)CC1` [Example 31] as the compound, how does the GI50 [1] read?
Answer: 15.5 nM

Question: What about the GI50 [2] of the same compound?
Answer: > 10000 nM

Question: What about the GI50 [3] of the same compound?
Answer: 241 nM

Question: What about the GI50 [4] of the same compound?
Answer: 12.8 nM

Question: Which results are given for `C=CC(=O)N1CCC(Oc2cc3c(Nc4ccc(Oc5ccn(-c6ccc(F)nc6)n5)cc4F)ncnc3cc2OC)CC1` [Example 32]?
Answer: GI50 [1]: 11.9 nM; GI50 [2]: > 10000 nM; GI50 [3]: 162 nM; GI50 [4]: 12.7 nM

Question: How did the GI50 [1] turn out when `C=CC(=O)N1CCC(Oc2cc3c(Nc4ccc(Oc5nc(-c6nnc(C(C)C)o6)cs5)cc4F)ncnc3cc2OC)CC1` [Example 33, 1-[4-({4-[2-Fluoro-4-({4-[5-(propan-2-yl)-1,3,4-oxadiazol-2-yl]-1,3-thiazol-2-yl}oxy)anilino]-7-methoxyquinazolin-6-yl}oxy)piperidin-1-yl]prop-2-en-1-one] was run?
Answer: 11.3 nM

Question: And the GI50 [2]?
Answer: > 10000 nM

Question: And the GI50 [3]?
Answer: 163 nM

Question: And the GI50 [4]?
Answer: 5.8 nM

Question: `C=CC(=O)N1CCC(Oc2cc3c(Nc4ccc(Oc5nc(-c6ccc(CC)nc6)cs5)cc4F)ncnc3cc2OC)CC1` [Example 34, 1-(4-{[4-(4-{[4-(6-Ethylpyridin-3-yl)-1,3-thiazol-2-yl]oxy}-2-fluoroanilino)-7-methoxyquinazolin-6-yl]oxy}piperidin-1-yl)prop-2-en-1-one] was tested. Which GI50 [1] did it give?
Answer: 20.5 nM

Question: What about the GI50 [2] of the same compound?
Answer: > 10000 nM

Question: And the GI50 [3]?
Answer: 276 nM

Question: What about the GI50 [4] of the same compound?
Answer: 13.7 nM

Question: What does the source list for `C=CC(=O)N1CCC(Oc2cc3c(Nc4ccc(Oc5nc(-c6ccc(OC)nc6)cs5)cc4F)ncnc3cc2OC)CC1` [Example 35, 1-(4-{[4-(2-Fluoro-4-{[4-(6-methoxypyridin-3-yl)-1,3-thiazol-2-yl]oxy}anilino)-7-methoxyquinazolin-6-yl]oxy}piperidin-1-yl)prop-2-en-1-one]?
Answer: GI50 [1]: 14.8 nM; GI50 [2]: > 10000 nM; GI50 [3]: 213 nM; GI50 [4]: 12.9 nM

Reference: patent US20230025510A1, “BIARYL ETHER-TYPE QUINAZOLINE DERIVATIVES” (DAIICHI SANKYO COMPANY, LIMITED, priority 2018, published 2023)
